According to patent US11458132B2, “Quinolin-2(1H)-one inhibitors of Late SV40 Factor” (TRUSTEES OF BOSTON UNIVERSITY, priority 2020, dated 2022):

Columns and labels:
HT-29 cells = assay: Allogeneic HT-29 xenograft model in athymic mice; type: in vivo
From the text: Syngeneic and allogeneic xenograft models: We used 8-12 weeks-old athymic female mice for the allogeneic xenograft model and C57BL/6 mice for a syngeneic xenograft model, as described previously^26,27. All the mice were obtained from The Jackson Laboratory and housed at Boston University Medical Center based on the approval from the Institutional Animal Care and Use Committee. Each mouse was implanted subcutaneously on the dorsal surface and was monitored for tumor growth as measured with a VWR Digital Caliper. The tumor volume was calculated twice a week using the equation: length×width×height.
The mice were randomly separated into two groups once tumor volumes reached 100 mm^3. The FQI2-34 was suspended in a mixture of ethanol and DMSO. The mixture was agitated until the compound had completely dissolved. This solution was further diluted in 20% PEG 400 and water to give a final concentration of 2 mg/ml. FQI2-34 or vehicle was injected intraperitoneally daily at 5 mg/kg for 5 days, followed by a break for 2 days. After 21 days, both groups of mice were sacrificed, and the tumors were harvested.
Cell culture and other reagents: HT-29 cells were obtained from ATCC and grown in the Roswell Park Memorial Institute (RPMI) medium supplemented with 10% FBS and penicillin and streptomycin. Cells were injected with the growth-factor poor Matrigel (Millipore, catalogue number DLW354263) using a 23-gauge needle for a total volume of 200 microliters. The MC38 cell line was obtained from ATCC and grown in RPMI medium supplemented with 10% FBS and penicillin and streptomycin.
IHC was performed on the paraffin-embedded tumors as described previously^26-28. The manufacturer's protocol was used along with reagents from the Abcam Mouse and Rabbit Specific HRP/DAB IHC Detection Kit—Micro-polymer (ab236466). Primary antibodies and their dilutions used to detect the respective proteins were: Axin2 (Abcam, #ab32197, 1:100), β-catenin (BD Biosciences, #610154, 1:100), LSF (BD Biosciences, #610818, 1:100), SOX9 (Abcam, #ab185230, 1:100), Ki-67 (Cell Signaling, #8D5, 1:100). […]
All images and quantification were performed using the Nikon Eclipse TE2000 Inverted Microscope with the color camera at the Boston University School of Medicine (BUSM) Imaging Core. Random high-power field (hpf) images of every tumor sample were obtained. For quantification the signal was converted to grayscale, and the number and intensity of pixels were analyzed as integrated density by using Fiji. The integrated density of all the images was normalized to its area. The images were processed in ImageJ (National Institutes of Health, Bethesda, Md.) to quantitate the expression of SOX-9, AXIN-2, and LSF. Regions of interest were drawn and the expression was measured using integrated density normalized to the surface area. The average normalized integrated image densities from multiple hpfs were used to perform the correlational analysis between expression levels of pairs of proteins.

colorectal cancer tumor = assay: Colorectal cancer tumor size and tumor tissue, FIGS. 22-24; type: in vivo, mouse; conditions: 15 mg/kg treatment compared with the other concentration
[1] = test system: Wnt signaling in HCT-116 cells; assay: Wnt signaling assay (β-catenin-responsive luciferase reporter); type: cell-based; conditions: overnight
Experimental: Wnt signaling assay: The CRC cells stably expressing β-catenin-responsive promoter tethered to a luciferase reporter (pBARLS) or a mutant construct (pfuBARLS), as described previously, were seeded in 96-well plates. After 48 h of transfection, luciferase assays was performed using the Dual-Luciferase Kit (Promega) and normalized using protein content determined by the Bradford assay (Bio-Rad) as described previously^26-28.

RPE cells = assay: Cell motility tracking; type: cell-based; conditions: thymidine block, 4 μM FQI1; not statistically significant
Experimental: Cell motility tracking: After overnight seeding in high μ-dishes, cells were synchronized by incubating in 2 mM thymidine for 18-20 hours. Thereafter, cells were treated with 4 μM FQI1 or vehicle (0.01% DMSO) for 1 hour, followed by a 10-min incubation in NucSpot® Live 650 dye (Biotium, 40082) following the manufacturer's instructions. Subsequently, cells were imaged every 2 minutes for 2 hours in an environmental chamber of a Nikon C2 Si microscope at 37° C. and 5% CO2 at 20× magnification. Cells that underwent mitosis during the 2-hour period were excluded from the analysis. Using ImageJ, individual nuclei were monitored using the Manual Tracking tool and the distances between starting and end points were integrated into swarmplots using Python's seaborn library.

[2] = xenografts, immunohistochemistry

Row | Compound | tumor volumes compared to controls (HT-29 cells; day 9, day 12 and day 17) | histopathological analysis of tumors (H & E) (HT-29 cells; day 21) | tumor volume, treated versus control (HT-29 cells; day 21) | tumor volume (HT-29 cells; day 21, 5 mg/kg intraperitoneally daily for 5 days each week) | AXIN2, CCND1 and SOX9 by quantitative RT-PCR (HT-29 cells; xenograft lysates at end of treatment) | increase in TUNEL-positive cells (HT-29 cells; xenografts) | CRC cells with nuclear β-catenin, lower than control (HT-29 cells; [2]) | downregulation of Ki-67 (HT-29 cells; [2]) | reduction in AXIN2 (integrated density) (HT-29 cells; [2]) | reduction in SOX9 (integrated density) (HT-29 cells; [2]) | effectiveness on colorectal cancer tumor size versus time (colorectal cancer tumor) | Wnt activity at baseline ([1]; 0.1 μM up to 20 μM) | concentrations that suppressed Wnt activity induced by lithium chloride [1] | cell displacement over a 2-hour period (RPE cells)
1 | CCOc1cc(N(C)C)ccc1-c1cc(=O)[nH]c2cc3c(cc12)OCO3 [FQI2-34, 8-(4-(dimethylamino)-2-ethoxyphenyl)-[1,3]dioxolo[4,5-g]quinolin-6(5H)-one] | significantly lower tumor volumes | lower tumor mass organized in luminal regions interspersed within the interstitium | 2 times | 1120±193 mm^3 | significantly downregulated | 1.8 fold | 4 fold | 4.2 fold | 5 fold | 3.2 fold | not as effective | inhibited Wnt activity in a monotonically decreasing manner | ≥ 0.1 µM | –
2 | CCOc1ccccc1C1CC(=O)Nc2cc3c(cc21)OCO3 (centres unmarked) [FQI1, 8-(2-ethoxyphenyl)-7,8-dihydro-[1,3]dioxolo[4,5-g]quinolin-6(5H)-one] | – | – | – | – | – | – | – | – | – | – | – | – | – | clear trend towards motility being reduced
